# Measured values as given in patent US8512739B2, “Use of low-glycemic sweeteners in food and beverage compositions” (Cargill, Incorporated, priority 2002, dated 2013).
# Experiments:
# [1] = tested on: Enzyme from the LM NRRL-B-21297 strain; experiment: Suitability of acceptors: oligosaccharide formation from sucrose and acceptor; format: biochemical, Leuconostoc mesenteroides; conditions: for Weight Ratio of Oligosaccharide to Fructose: 0.4% by weight each of sucrose and acceptor, pH 6, 2 hours at 37° C., DP3-DP7 minus starting material; for suitability as acceptor: compared with the acceptors of Table 2.0, two hour reaction time
# Experimental: Enzyme from the LM NRRL-B-21297 strain was tested to determine the suitability of various acceptors. Enzyme was prepared using the methods described herein.
# In determining the suitability of the preparation of the sucrose/acceptor products, 0.4% by weight of each sucrose and acceptor were mixed with enzyme solution in 0.01 M sodium gluconate buffer, pH 6, and the reaction proceeded for 2 hours at 37° C.
# The carbohydrate profiles of products generated by the enzyme reactions with the blends of sucrose and syrups and syrup solids herein, were analyzed by high performance liquid chromatography (HPLC) using two (2) Bio-Rad Aminex HPX42A carbohydrate columns (300 mm×7.8 mm) available from Bio-Rad, Hercules, Calif., in succession, with water as the eluate at 0.2 ml/min, at a temperature of 65° C.
# The reaction rate was estimated based on the amount of oligosaccharides generated from each acceptor and normalized against the fructose concentration in each reaction. The results are reported below in Table 2.0. The values reported for oligosaccharides to fructose are for DP3-DP7 minus starting material.
# rat intestinal powder = experiment: In vitro digestibility assay using rat intestinal powder; format: in vitro ADME; conditions: in 4 hours
# Experimental: The results provided in this example are derived from in vitro digestibility assays using rat intestinal powder available from Sigma/Aldrich, Saint Louis, Mo., Catalog Number I-1630). […] Free glucose concentration in the reaction mixture was analyzed over time by the HPLC method described above.
Compound,Weight Ratio of Oligosaccharide to Fructose [1],suitability as acceptor [1],digested (rat intestinal powder) [%]
OC[C@H]1O[C@H](OC[C@H]2O[C@H](O[C@H]3[C@H](O)[C@@H](O)C(O)O[C@@H]3CO)[C@H](O)[C@@H](O)[C@@H]2O)[C@H](O)[C@@H](O)[C@@H]1O (stereo partly drawn) [Panose],1.56,–,–
OC[C@H]1O[C@H](OC[C@H]2OC(O)[C@H](O)[C@@H](O)[C@@H]2O)[C@H](O)[C@@H](O)[C@@H]1O (stereo partly drawn) [Isomaltose],0.93,–,–
O=C[C@@H](O)[C@H](O)[C@H](O)CO [arabinose],–,not as effective acceptors,–
OC[C@H]1O[C@H](O[C@H]2[C@H](O)[C@@H](O)[C@@H](O[C@H]3[C@H](O)[C@@H](O)[C@@H](O[C@H]4[C@H](O)[C@@H](O)C(O)O[C@@H]4CO)O[C@@H]3CO)O[C@@H]2CO)[C@H](O)[C@@H](O)[C@@H]1O (stereo partly drawn) [Maltotetrose],0.38,–,–
"OC[C@H]1O[C@H](O[C@H]2[C@H](O)[C@@H](O)C(O)O[C@@H]2CO)[C@H](O)[C@@H](O)[C@@H]1O (mixture of isomers) [Maltose, reference compound]",2.02,–,88
O[C@H]1[C@H](O)[C@@H](O)[C@H](O)[C@@H](O)[C@H]1O [myo-inositol],–,not as effective acceptors,–
Maltotriose,0.53,–,–
O=C[C@H](O)[C@@H](O)[C@H](O)CO [xylose],–,not as effective acceptors,–
